{"source": "patent US6740655B2", "about": "“Pyrimidine carboxamides useful as inhibitors of PDE4 isozymes” (Pfizer Inc, priority 2000, dated 2004)", "origin": "cited, not measured here", "key": {"[1]": {"system": "antigen-induced eosinophilia", "settings": "rat"}, "[2]": {"settings": "doses up to 400 mg, 54 subjects"}, "[3]": {"settings": "rat"}, "[4]": {"system": "PDE4 from U937 cells"}, "[5]": {"system": "guinea-pig trachea"}, "[6]": {"system": "psoriatic lesions"}, "[7]": {"system": "tumor cells", "settings": "at micromolar concentrations"}, "[8]": {"system": "pulmonary artery rings"}, "[9]": {"system": "lipopolysaccharide-induced mesenteric blood flow fall"}, "[10]": {"system": "lipopolysaccharide-induced bowel erythrocyte extravasation", "settings": "rats; b385: pretreatment i.p. 3×, pentoxifylline 5 to 50, rolipram 10 to 30, debufylline 0.1 to 3 mg/kg"}, "[11]": {"system": "T-cell mediated hepatic failure", "settings": "mouse, in vivo"}, "[12]": {"system": "high-affinity rolipram binding site (Sr)"}, "[13]": {"settings": "in vivo"}, "[14]": {"system": "inflammatory parameters, atopic dermatitis"}, "[15]": {"system": "allergic rhinitis", "settings": "in vivo"}, "[16]": {"system": "late reactions to inhaled allergen", "settings": "b18: 9.5 days oral, 15 and 30 mg"}}, "note": "Entries after “also recorded” stand apart in the source; their conditions may differ. Like-named read-outs stand apart in the source and are kept apart here."}
{"smiles": "O=C(NC1NC(c2ccccc2)c2cccc3c2N(CC3)C1=O)c1ccncc1", "note": "(stereo not drawn) [PD-168787]", "values": [{"measurement": "inhibition of antigen-induced eosinophilia", "setting": "[1]", "value": "activity"}]}
{"smiles": "COc1cc2c3c(c1)C(c1ccccc1)=N[C@@H](NC(=O)c1cc4ccccc4cn1)C(=O)N3CC2", "note": "[Cl-1018]", "values": [{"measurement": "adverse events", "setting": "[2]", "value": "no adverse events were reported"}, {"measurement": "oral bioavailability", "setting": "[3]", "value": 57, "unit": "%"}, {"measurement": "inhibition of antigen-induced eosinophilia", "setting": "[1]", "value": "active"}, {"measurement": "oral potency ED50", "setting": "[1]; oral", "value": 5, "unit": "mg/kg"}, {"measurement": "IC50", "setting": "[4]; read-out: IC50 PDE4 in U937 cells", "value": 1100, "unit": "nM"}]}
{"smiles": "CC1CC1c1nc(NC2CC2)nc(N2CCOCC2)n1", "note": "(stereo not drawn) [Formula (0.0.57)]", "values": [{"measurement": "relaxant activity in guinea-pig trachea model", "setting": "[5]", "value": "potent relaxant agents"}]}
{"smiles": "COC(=O)c1ccc2c(=O)n(C3NC(c4ccccc4)c4cc(N)cc5c4N(CC5)C3=O)cnc2c1", "note": "(stereo not drawn) [Formula (0.0.53)]", "values": [{"measurement": "IC50", "setting": "[4]; read-out: IC50 against the PDE4 from U937 cells", "value": 3, "unit": "nM"}]}
{"smiles": "COc1ccc(CC2CNC(=O)N2)cc1OC1CCCC1", "note": "(stereo not drawn) [Ro 20-1724]", "values": [{"measurement": "adverse systemic or cutaneous effects", "setting": "[6]; in vivo", "value": "without adverse systemic or cutaneous effects"}, {"measurement": "effect on psoriatic lesions", "setting": "[6]; versus vehicle", "value": "improve psoriatic lesions"}]}
{"smiles": "Clc1nc2c(N3CCCC3)nc(N3CCNCC3)nc2nc1NCc1ccccc1", "note": "[Formula (0.0.55)]", "values": [{"measurement": "growth of tumor cells", "setting": "[7]", "value": "inhibit the growth of tumor cells"}]}
{"smiles": "Cc1[nH]c(=O)c(C#N)cc1-c1ccncc1", "note": "[milrinone]", "values": [{"measurement": "relaxant activities of isoproterenol and forskolin", "setting": "[8]", "value": "The same effect has been observed"}]}
{"smiles": "COc1ccc(C2CNC(=O)C2)cc1OC1CCCC1", "note": "(stereo not drawn) [rolipram]", "values": [{"measurement": "intestinal hypoperfusion in dogs", "setting": "[9]", "value": "attenuated"}, {"measurement": "lipopolysaccharide-induced bowel erythrocyte extravasation", "setting": "[10]", "value": "attenuated"}, {"measurement": "concanavalin A-induced IL4 release", "setting": "[11]", "value": "suppress"}]}
{"smiles": "CCCCn1c(=O)c2c(ncn2CC(C)=O)n(CCCC)c1=O", "note": "[denbufylline]", "values": [{"measurement": "intestinal hypoperfusion in dogs", "setting": "[9]", "value": "attenuated"}, {"measurement": "lipopolysaccharide-induced bowel erythrocyte extravasation", "setting": "[10]", "value": "attenuated"}]}
{"smiles": "COc1ccc(C2CNC(=O)NC2)cc1OC1CC2CCC1C2", "note": "(stereo not drawn) [CP-80,633]", "values": [{"measurement": "affinity at the Sr", "setting": "[12]", "value": "high affinity"}, {"measurement": "emesis / nausea and vomiting", "setting": "[13]", "value": "elicit emesis"}, {"measurement": "adverse effects", "setting": "[14]; human, in vivo", "value": "no adverse effects"}, {"measurement": "inflammatory parameters", "setting": "[14]; topical, bilaterally over eight days, twenty patients", "value": "effectively inhibit all of the inflammatory parameters tested"}]}
{"smiles": "O=S1(=O)CCN(c2nc(NC3CC3)nc(C3CC3)n2)C1", "note": "[Formula (0.0.56)]", "values": [{"measurement": "relaxant activity in guinea-pig trachea model", "setting": "[5]", "value": "potent relaxant agents"}]}
{"smiles": "O=C(Nc1c(Cl)cncc1Cl)C(=O)c1cn(Cc2ccc(F)cc2)c2ccc(O)cc12", "note": "[AWD-12,281]", "values": [{"measurement": "activity in rat model of allergic rhinitis", "setting": "[15]", "value": "active"}]}
{"smiles": "COc1ccc([C@H](Cc2ccncc2)c2ccccc2)cc1OC1CCCC1", "note": "[CDP840]", "values": [{"measurement": "late reactions / late-phase response", "setting": "[16]", "value": "suppression of late reactions; also recorded: significant inhibition of late-phase response"}]}
